Where two headings read alike, the source gives them in different places.
Experiments:
plasma proteins [1] = assay: Human plasma rapid equilibrium dialysis; type: in vitro ADME; conditions: pooled human plasma, 4 h of shaking, 10 µM, monitored drug alone
[2] = system: cryopreserved pooled human primary hepatocytes
plasma proteins [3] = conditions: cited from earlier work
CYP1A2 = molecular target: T1, CYP1A2 (Homo sapiens, UniProt P05177); assay: CYP screening of gefitinib and erlotinib with human pooled supersomes; type: in vitro ADME; conditions: 10 µM, at 60 min
T1 sequence (P05177 1-516): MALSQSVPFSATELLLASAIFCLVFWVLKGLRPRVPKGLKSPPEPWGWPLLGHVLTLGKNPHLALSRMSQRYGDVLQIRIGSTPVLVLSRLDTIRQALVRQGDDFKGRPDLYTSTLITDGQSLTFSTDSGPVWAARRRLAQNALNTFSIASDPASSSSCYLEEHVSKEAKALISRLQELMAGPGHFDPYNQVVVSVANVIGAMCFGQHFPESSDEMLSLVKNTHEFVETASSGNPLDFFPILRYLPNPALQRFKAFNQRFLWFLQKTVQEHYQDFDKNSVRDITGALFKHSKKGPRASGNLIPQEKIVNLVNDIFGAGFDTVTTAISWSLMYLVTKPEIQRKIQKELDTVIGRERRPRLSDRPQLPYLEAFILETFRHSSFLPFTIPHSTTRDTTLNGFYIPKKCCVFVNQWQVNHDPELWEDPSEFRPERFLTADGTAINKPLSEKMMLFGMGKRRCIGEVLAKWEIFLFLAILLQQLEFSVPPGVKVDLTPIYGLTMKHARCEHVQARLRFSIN

CYP2D6 = CYP2D6 (Homo sapiens, UniProt P10635); assay: as above; type: in vitro ADME; conditions: 10 µM
Sequence of CYP2D6 (P10635 whole entry): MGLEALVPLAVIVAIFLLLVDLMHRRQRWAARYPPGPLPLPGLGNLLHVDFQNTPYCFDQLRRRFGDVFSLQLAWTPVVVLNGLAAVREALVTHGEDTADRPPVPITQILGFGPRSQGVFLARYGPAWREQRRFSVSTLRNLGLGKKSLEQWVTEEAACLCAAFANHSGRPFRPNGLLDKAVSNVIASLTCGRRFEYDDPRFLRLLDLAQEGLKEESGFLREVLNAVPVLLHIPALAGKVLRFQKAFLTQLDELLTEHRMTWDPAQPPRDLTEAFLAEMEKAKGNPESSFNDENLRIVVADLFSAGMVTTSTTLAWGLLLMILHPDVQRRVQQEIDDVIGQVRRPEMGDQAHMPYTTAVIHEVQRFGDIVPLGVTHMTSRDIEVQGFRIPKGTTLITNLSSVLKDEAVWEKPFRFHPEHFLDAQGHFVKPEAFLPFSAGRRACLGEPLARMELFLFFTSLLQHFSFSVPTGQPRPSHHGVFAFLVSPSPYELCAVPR

CYP3A4 = CYP3A4 (Homo sapiens, UniProt P08684); conditions: supersomes, 10 µM, at 60 min
Sequence of CYP3A4 (P08684 whole entry): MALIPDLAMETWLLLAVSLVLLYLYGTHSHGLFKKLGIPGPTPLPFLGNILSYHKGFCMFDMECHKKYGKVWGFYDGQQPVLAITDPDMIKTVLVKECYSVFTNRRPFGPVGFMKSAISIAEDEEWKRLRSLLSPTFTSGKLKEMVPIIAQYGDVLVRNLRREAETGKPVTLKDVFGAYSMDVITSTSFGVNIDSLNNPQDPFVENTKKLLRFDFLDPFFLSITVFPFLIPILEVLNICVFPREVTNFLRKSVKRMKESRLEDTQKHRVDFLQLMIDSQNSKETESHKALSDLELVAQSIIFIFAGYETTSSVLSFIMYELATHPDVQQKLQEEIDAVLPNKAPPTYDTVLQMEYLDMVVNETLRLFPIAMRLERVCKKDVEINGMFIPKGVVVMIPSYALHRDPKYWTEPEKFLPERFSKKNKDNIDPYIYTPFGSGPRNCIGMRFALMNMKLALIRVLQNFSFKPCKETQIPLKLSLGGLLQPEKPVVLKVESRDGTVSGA

[4] = 4 h, 10 µM each, monitored drug + Erl
[5] = 4 h, 10 µM each, monitored drug + Gef
[6] = 4 h incubation, 10 µM, monitored drug alone
[7] = 4 h, 10 µM each, monitored drug + Flx
[8] = 4 h, 10 µM each, monitored drug + Flx + Los
[9] = 4 h, 10 µM each, monitored drug + Los

RED Protein Binding, Binding (%) (plasma proteins [1])	Parent remain (%) [2, 4] [%]	Parent remain (%) ([2]; 4 h, 10 µM each, monitored drug + Erl + Flx)	Parent remain (%) [2, 5] [%]	Parent remain (%) ([2]; 4 h, 10 µM each, monitored drug + Gef + Flx)	Parent remain (%) [2, 6] [%]	metabolism by CYP1A2 (CYP1A2)	metabolism by CYP2D6 (CYP2D6; supersomes, at 60 min)	metabolism by CYP3A4 (CYP3A4)	Parent remain (%) [2, 7] [%]	Parent remain (%) [2, 8] [%]	Parent remain (%) [2, 9] [%]	Parent remain (%) ([2]; 4 h, 10 µM each, monitored drug + Erl + Los)	Parent remain (%) ([2]; 4 h, 10 µM each, monitored drug + Gef + Los)	drug remaining (CYP2D6; CYP2D6 supersomes)	Compound	plasma protein binding, % bound (plasma proteins [3]; literature value ref Sica et al., 2005)	plasma protein binding, % bound (plasma proteins [3]; literature value ref Christiansen et al., 2009) [%]	plasma protein binding, % bound (plasma proteins [3]; literature value ref Van Harten 1993) [%]	plasma protein binding, % bound (plasma proteins [3]; literature value ref Li et al., 2006)
> 95	89 ± 10	99 ± 4	89 ± 4	112 ± 13	77 ± 6										CCCCc1nc(Cl)c(CO)n1Cc1ccc(-c2ccccc2-c2nn[nH]n2)cc1 [Losartan]	greater than 98%			
96 ± 0					62 ± 13	significantly metabolized	significantly metabolized	significantly metabolized	75 ± 3	86 ± 9	63 ± 2				C#Cc1cccc(Nc2ncnc3cc(OCCOC)c(OCCOC)cc23)c1 [Erlotinib]		95		
95 ± 1	102 ± 1		87 ± 10		75 ± 9							121 ± 3	122 ± 16		CNCCC(Oc1ccc(C(F)(F)F)cc1)c1ccccc1 (stereo not drawn) [Fluoxetine]			95	
> 95					65 ± 2				72 ± 10	96 ± 4	58 ± 3			less than 80%	COc1cc2ncnc(Nc3ccc(F)c(Cl)c3)c2cc1OCCCN1CCOCC1 [Gefitinib]				~ 97%

Reference: article PMC8320603 (Current Research in Toxicology, 2021)
